# In patent US8232401B2 (Japan Tobacco Inc., priority 2002, dated 2012):
# Biological target: T1, HIV integrase (Human immunodeficiency virus type 1 group M subtype B, UniProt P12497, F1332H)
# T1 construct: HIV integrase full length gene; made in house; host or cells: Escherichia coli BL21(DE3)
# Assay: Determination of enzyme (HIV integrase) inhibitory activity (strand transfer, microtiter plate, absorbance at 450 nm)
# Assay type: biochemical, HIV (Human Immunodeficiency Virus (type 1))
# Conditions: recombinant HIV integrase (F185H) expressed in E. coli; donor DNA on streptavidin plate, digoxigenin target DNA; 37° C.
# Description: The following explains evaluation methods of the HIV integrase inhibitory activity of the compound of the present invention.
# (i) Construction of Recombinant Integrase Gene Expression System
# (ii) Production and Purification of Integrase Protein
# Escherichia coli recombinant BL21(DE3) transformed with plasmid pET21a-IN-F185H obtained in (i) was shake cultured at 30° C. in a liquid medium containing ampicillin. When the culture reached the logarithmic growth phase, isopropyl-β-D-thiogalactopyranoside was added to promote expression of integrase gene. The culture was continued for 3 hrs to promote accumulation of the integrase protein. The recombinant E. coli was collected in pellets by centrifugal separation and preserved at −80° C.
# The E. coli was suspended in Lysis buffer (20 mM HEPES (pH 7.5), 5 mM DTT, 10 mM CHAPS, 10% glycerol) containing 1M sodium chloride and subjected to repeat pressurization and depressurization for rupture, and centrifugal separation at 4° C., 40,000×g, 60 min to recover a water-soluble fraction (supernatant). This was diluted 10-fold with Lysis buffer free of sodium chloride, mixed with SP-Sepharose (Pharmacia Corporation) and stirred at 4° C. for 60 min to allow adsorption of integrase protein to the resin. The resin was washed with Lysis buffer containing 100 mM sodium chloride and the integrase protein was eluted with Lysis buffer containing 1M sodium chloride.
# The eluted integrase protein solution was applied to a Superdex 75 (Pharmacia Corporation) column for gel filtration. The protein was eluted with Lysis buffer containing 1M sodium chloride.
# The obtained fractions of the integrate protein were collected and preserved at −80° C.
# (iii) Preparation of DNA Solution
# The following DNA synthesized by Greiner was dissolved in TE buffer (10 mM Tris-hydrochloric acid (pH 8.0), 1 mM EDTA) and mixed with donor DNA, target DNA, each complementary strand (+ and − strands) to 1 μM. The mixture was heated at 95° C. for 5 min, 80° C. for 10 min, 70° C. for 10 min, 60° C. for 10 min, 50° C. for 10 min and 40° C. for 10 min and preserved at 25° C. to give a double stranded DNA, which was used for the test. Donor DNA (− strand having biotin attached to the 5′ terminal)
# (iv) Determination of Enzyme (HIV Integrase) Inhibitory activity
# The donor DNA was diluted with TE buffer to 10 nM, of which 50 μl was added to each well of streptavidin-coated microtiter plate (Roche) and allowed to adsorb at 37° C. for 60 min. The DNA was washed with phosphate buffer (Dulbecco PBS, Sanko Junyaku Co., Ltd.) containing 0.1% Tween 20 and phosphate buffer. Then, a reaction mixture (70 μl) having the following composition, a test substance (10 μl) diluted with the reaction mixture and […] integrase protein (10 μl) were added to each well and reacted at 37° C. for 60 min.
# Then, 50 nM target DNA (1.0 μl) was added, reacted at 37° C. for 10 min and washed with phosphate buffer containing 0.1% Tween 20 to stop the reaction.
# Then, 100 mU/ml peroxidase labeled anti-digoxigenin antibody solution (Roche, 100 μl) was added, and the mixture was reacted at 37° C. for 60 min, followed by washing with phosphate buffer containing 0.1% Tween 20.
# A peroxidase color solution (Bio Rad, 100 μl) was added and allowed to react at room temperature for 4 min. The color reaction was stopped by adding 1N sulfuric acid (100 μl). The absorbance at 450 nm was measured.
# The HIV integrase inhibitory activity (IC50) of the compound of the present invention was calculated from the inhibition rate according to the following formula. […] Evaluation of Antiviral Activity
row,Structure (SMILES),IC50 [nM]
1,"O=C(O)c1cn(CCO)c2c(F)cc(Cc3cccc(Cl)c3Cl)cc2c1=O [Example 1-2, 6-(2,3-dichlorobenzyl)-1,4-dihydro-8-fluoro-1-(2-hydroxyethyl)-4-oxo-3-quinolinecarboxylic acid]",33
2,"CS(=O)(=O)NCCn1cc(C(=O)O)c(=O)c2cc(Cc3cccc(Cl)c3Cl)ccc21 [Example 1-3, 6-(2,3-Dichlorobenzyl)-1-(2-methanesulfonylaminoethyl)-4-oxo-1,4-dihydroquinoline-3-carboxylic acid]",360
3,"O=C(O)c1cn(CCn2ccnc2)c2ccc(Cc3cccc(Cl)c3Cl)cc2c1=O [Example 1-4, 6-(2,3-Dichlorobenzyl)-1-(2-imidazol-1-ylethyl)-4-oxo-1,4-dihydroquinoline-3-carboxylic acid]",240
4,"CNC(=O)Cn1cc(C(=O)O)c(=O)c2cc(Cc3cccc(Cl)c3Cl)ccc21 [Example 1-6, 6-(2,3-Dichlorobenzyl)-1-methylcarbamoylmethyl-4-oxo-1,4-dihydroquinoline-3-carboxylic acid]",140
5,"NC(=O)Cn1cc(C(=O)O)c(=O)c2cc(Cc3cccc(Cl)c3Cl)ccc21 [Example 1-7, 1-Carbamoylmethyl-6-(2,3-Dichlorobenzyl)-4-oxo-1,4-dihydroquinoline-3-carboxylic acid]",67
6,"CC(C)n1cc(C(=O)O)c(=O)c2cc(Cc3cccc(Cl)c3Cl)ccc21 [Example 1-8, 6-(2,3-Dichlorobenzyl)-1-isopropyl-4-oxo-1,4-dihydroquinoline-3-carboxylic acid]",46
7,"NS(=O)(=O)Cn1cc(C(=O)O)c(=O)c2cc(Cc3cccc(Cl)c3Cl)ccc21 [Example 1-9, 6-(2,3-Dichlorobenzyl)-4-oxo-1-sulfamoylmethyl-1,4-dihydroquinoline-3-carboxylic acid]",17
8,"O=C(O)CCn1cc(C(=O)O)c(=O)c2cc(Cc3cccc(Cl)c3Cl)ccc21 [Example 1-10, 1-(2-Carboxyethyl)-6-(2,3-dichlorobenzyl)-4-oxo-1,4-dihydroquinoline-3-carboxylic acid]",72
9,"O=C(O)c1cn(CCO)c2ccc(Cc3cccc4ccccc34)cc2c1=O [Example 1-11, 1-(2-Hydroxyethyl)-6-naphthalen-1-ylmethyl-4-oxo-1,4-dihydroquinoline-3-carboxylic acid]",180
10,"COC(=O)c1cn(CCO)c2ccc(Cc3cccc(Cl)c3Cl)cc2c1=O [Example 1-12, 6-(2,3-Dichlorobenzyl)-1-(2-hydroxyethyl)-4-oxo-1,4-dihydroquinoline-3-carboxylic acid methyl ester]",710
11,"NC(=O)CCn1cc(C(=O)O)c(=O)c2cc(Cc3cccc(Cl)c3Cl)ccc21 [Example 1-13, 1-(2-Carbamoylethyl)-6-(2,3-dichlorobenzyl)-4-oxo-1,4-dihydroquinoline-3-carboxylic acid]",140
12,"CC(=O)Cn1cc(C(=O)O)c(=O)c2cc(Cc3cccc(Cl)c3Cl)ccc21 [Example 1-14, 6-(2,3-Dichlorobenzyl)-4-oxo-1-(2-oxopropyl)-1,4-dihydroquinoline-3-carboxylic acid]",75
13,"O=C(O)c1cn(Cc2ccccc2)c2ccc(Cc3cccc(Cl)c3Cl)cc2c1=O [Example 1-15, 1-Benzyl-6-(2,3-dichlorobenzyl)-4-oxo-1,4-dihydroquinoline-3-carboxylic acid]",230
14,"O=C(O)c1cn(CCc2ccccc2)c2ccc(Cc3cccc(Cl)c3Cl)cc2c1=O [Example 1-16, 6-(2,3-Dichlorobenzyl)-4-oxo-1-phenethyl-1,4-dihydroquinoline-3-carboxylic acid]",32
15,"O=C(O)c1cn(CCCc2ccccc2)c2ccc(Cc3cccc(Cl)c3Cl)cc2c1=O [Example 1-17, 6-(2,3-Dichlorobenzyl)-1-(3-phenylpropyl)-4-oxo-1,4-dihydroquinoline-3-carboxylic acid]",84
16,"CC(C)Cn1cc(C(=O)O)c(=O)c2cc(Cc3cccc(Cl)c3Cl)ccc21 [Example 1-18, 6-(2,3-Dichlorobenzyl)-1-isobutyl-4-oxo-1,4-dihydroquinoline-3-carboxylic acid]",120
17,"O=C(O)c1cn(CCCCc2ccccc2)c2ccc(Cc3cccc(Cl)c3Cl)cc2c1=O [Example 1-19, 6-(2,3-Dichlorobenzyl)-1-(4-phenylbutyl)-4-oxo-1,4-dihydroquinoline-3-carboxylic acid]",81
18,"O=C(O)c1cn(Cc2ccccc2-c2ccccc2)c2ccc(Cc3cccc(Cl)c3Cl)cc2c1=O [Example 1-20, 1-Biphenyl-2-ylmethyl-6-(2,3-dichlorobenzyl)-4-oxo-1,4-dihydroquinoline-3-carboxylic acid]",690
19,"O=C(O)c1cn(CCCCO)c2ccc(Cc3cccc(Cl)c3Cl)cc2c1=O [Example 1-21, 6-(2,3-Dichlorobenzyl)-1-(4-hydroxybutyl)-4-oxo-1,4-dihydroquinoline-3-carboxylic acid]",74
20,"O=C(O)c1cn(Cc2cc3ccccc3s2)c2ccc(Cc3cccc(Cl)c3Cl)cc2c1=O [Example 1-22, 1-Benzo[b]thiophen-2-ylmethyl-6-(2,3-dichlorobenzyl)-4-oxo-1,4-dihydroquinoline-3-carboxylic acid]",110
21,"O=C(O)c1cn(Cc2ccc(Cl)c(Cl)c2)c2ccc(Cc3cccc(Cl)c3Cl)cc2c1=O [Example 1-23, 6-(2,3-dichlorobenzyl)-1-(3,4-dichlorobenzyl)-4-oxo-1,4-dihydroquinoline-3-carboxylic acid]",190
22,"CN(C)CCn1cc(C(=O)O)c(=O)c2cc(Cc3cccc(Cl)c3Cl)ccc21 [Example 1-24, 6-(2,3-Dichlorobenzyl)-1-(2-dimethylaminoethyl)-4-oxo-1,4-dihydroquinoline-3-carboxylic acid]",290
23,"O=C(O)c1cn(CCCO)c2ccc(Cc3cccc(Cl)c3Cl)cc2c1=O [Example 1-25, 6-(2,3-Dichlorobenzyl)-1-(3-hydroxypropyl)-4-oxo-1,4-dihydroquinoline-3-carboxylic acid]",160
24,"COCCn1cc(C(=O)O)c(=O)c2cc(Cc3cccc(Cl)c3Cl)ccc21 [Example 1-26, 6-(2,3-Dichlorobenzyl)-1-(2-methoxyethyl)-4-oxo-1,4-dihydroquinoline-3-carboxylic acid]",180
25,"O=C(O)c1cn(CC(F)(F)F)c2ccc(Cc3cccc(Cl)c3Cl)cc2c1=O [Example 1-27, 6-(2,3-Dichlorobenzyl)-1-(2,2,2-trifluoroethyl)-4-oxo-1,4-dihydroquinoline-3-carboxylic acid]",76
26,"O=C(O)Cn1cc(C(=O)O)c(=O)c2cc(Cc3cccc(Cl)c3Cl)ccc21 [Example 1-28, 1-Carboxymethyl-6-(2,3-dichlorobenzyl)-4-oxo-1,4-dihydroquinoline-3-carboxylic acid]",59
27,"Cc1ncsc1CCn1cc(C(=O)O)c(=O)c2cc(Cc3cccc(Cl)c3Cl)ccc21 [Example 1-29, 6-(2,3-Dichlorobenzyl)-1-[2-(4-methylthiazol-5-yl)ethyl]-4-oxo-1,4-dihydroquinoline-3-carboxylic acid]",240
28,"CC(O)Cn1cc(C(=O)O)c(=O)c2cc(Cc3cccc(Cl)c3Cl)ccc21 (stereo not drawn) [Example 1-30, 6-(2,3-Dichlorobenzyl)-1-(2-hydroxypropyl)-4-oxo-1,4-dihydroquinoline-3-carboxylic acid]",140
29,O=C(O)c1cn(CCO)c2ccc(Cc3cccc(Cl)c3)cc2c1=O [Example 1-31],170
30,"CSCCn1cc(C(=O)O)c(=O)c2cc(Cc3cccc(Cl)c3Cl)ccc21 [Example 1-32, 6-(2,3-Dichlorobenzyl)-1-(2-methylsulfanylethyl)-4-oxo-1,4-dihydroquinoline-3-carboxylic acid]",68
